US20150011423A1, “MEANS AND METHODS FOR ASSESSING KIDNEY TOXICITY” (BASF SE, priority 2011, published 2015)
Marks after values point to notes of the source that are not given here.

Tested on: rats
Experiment: 28-day repeated dose study in rats with mass spectrometry-based plasma metabolite profiling (GC-MS, LC-MS, SPE-LC-MS); treatment ratios versus control
Details: plasma; for Adrenaline (Epinephrine), treatment ratio versus control / Glucosamine, treatment ratio versus control / Histamine, treatment ratio versus control / Mannosamine, treatment ratio versus control: Table 2b glomerular-tubular defect; for 4-Hydroxy-3-methoxyphenylglycol (HMPG), treatment ratio versus control / Cysteine, treatment ratio versus control / Isopalmitic acid (C16:0), treatment ratio versus control / Metanephrine, treatment ratio versus control / Normetanephrine, treatment ratio versus control: Table 2d glomerular-tubular defect
[1] = female rats, day 14, high dose, Table 2a glomerular-tubular defect
[2] = female rats, day 28, high dose, Table 2a glomerular-tubular defect
[3] = male rats, day 7, high dose, Table 2c glomerular-tubular defect
[4] = male rats, day 14, high dose, Table 2c glomerular-tubular defect
[5] = male rats, day 28, high dose, Table 2c glomerular-tubular defect

How did the “3-Hydroxyindole, treatment ratio versus control” value [1] turn out when `C[C@H](CS)C(=O)N1CCC[C@H]1C(=O)O` [Captopril] was run?
The value was 1.35.

And the “3-Indoxylsulfate, treatment ratio versus control” value [1]?
Its value is 1.2.

What about the “Creatine, treatment ratio versus control” value [1] of the same compound?
Its value is 1.18*.

And the “Creatinine, treatment ratio versus control” value [1]?
The value was 1.06.

What about the “Elaidic acid (C18:trans[9]1), treatment ratio versus control” value [1] of the same compound?
Its value is 1.18.

And the “Lysophosphatidylcholine (C20:4), treatment ratio versus control” value [1]?
Its value is 1.04.

What about the “Xylitol, treatment ratio versus control” value [1] of the same compound?
Its value is 1.17.

What about the “Adrenaline (Epinephrine), treatment ratio versus control” value (female rats, day 14, high dose) of the same compound?
Its value is 1.27.

What about the “Glucosamine, treatment ratio versus control” value (female rats, day 14, high dose) of the same compound?
Its value is 0.4 *.

What about the “Histamine, treatment ratio versus control” value (female rats, day 14, high dose) of the same compound?
Its value is 0.93.

What about the “Mannosamine, treatment ratio versus control” value (female rats, day 14, high dose) of the same compound?
The value was 0.69 *.

What about the “3-Hydroxyindole, treatment ratio versus control” value [2] of the same compound?
Its value is 1.21 *.

And the “3-Indoxylsulfate, treatment ratio versus control” value [2]?
Its value is 1.21 *.

What about the “Creatine, treatment ratio versus control” value [2] of the same compound?
Its value is 1.33 *.

What about the “Creatinine, treatment ratio versus control” value [2] of the same compound?
Its value is 1.93 *.

What about the “Elaidic acid (C18:trans[9]1), treatment ratio versus control” value [2] of the same compound?
The value was 1.22 *.

What about the “Lysophosphatidylcholine (C20:4), treatment ratio versus control” value [2] of the same compound?
The value was 1.24 *.

What about the “Xylitol, treatment ratio versus control” value [2] of the same compound?
Its value is 1.31 *.

And the “Adrenaline (Epinephrine), treatment ratio versus control” value (female rats, day 28, high dose)?
Its value is 0.28 *.

What about the “Glucosamine, treatment ratio versus control” value (female rats, day 28, high dose) of the same compound?
The value was 1.06^.

And the “Histamine, treatment ratio versus control” value (female rats, day 28, high dose)?
Its value is 0.81 *.

And the “Mannosamine, treatment ratio versus control” value (female rats, day 28, high dose)?
Its value is 1.04^.

And the “Creatine, treatment ratio versus control” value [3]?
Its value is 1.16 *.

What about the “Creatinine, treatment ratio versus control” value [3] of the same compound?
The value was 1.32^.

And the “Glycerol-3-phosphate, polar fraction, treatment ratio versus control” value [3]?
Its value is 1.28 *.

And the “Lysophosphatidylcholine (C18:2), treatment ratio versus control” value [3]?
The value was 1.07 *.

What about the “Threonic acid, treatment ratio versus control” value [3] of the same compound?
The value was 1.37 *.

And the “4-Hydroxy-3-methoxyphenylglycol (HMPG), treatment ratio versus control” value (male rats, day 7, high dose)?
The value was 1.07^.

What about the “Cysteine, treatment ratio versus control” value (male rats, day 7, high dose) of the same compound?
The value was 0.59 *.

What about the “Isopalmitic acid (C16:0), treatment ratio versus control” value (male rats, day 7, high dose) of the same compound?
Its value is 0.78 *.

And the “Metanephrine, treatment ratio versus control” value (male rats, day 7, high dose)?
The value was 0.81 *.

What about the “Normetanephrine, treatment ratio versus control” value (male rats, day 7, high dose) of the same compound?
Its value is 0.9.

And the “Creatine, treatment ratio versus control” value [4]?
The value was 1.06 *.

And the “Creatinine, treatment ratio versus control” value [4]?
Its value is 1.12 *.

What about the “Glycerol-3-phosphate, polar fraction, treatment ratio versus control” value [4] of the same compound?
The value was 0.97^.

What about the “Lysophosphatidylcholine (C18:2), treatment ratio versus control” value [4] of the same compound?
The value was 1.2 *.

And the “Threonic acid, treatment ratio versus control” value [4]?
Its value is 1.27 *.

What about the “4-Hydroxy-3-methoxyphenylglycol (HMPG), treatment ratio versus control” value (male rats, day 14, high dose) of the same compound?
The value was 0.91 *.

And the “Cysteine, treatment ratio versus control” value (male rats, day 14, high dose)?
Its value is 0.77 *.

What about the “Isopalmitic acid (C16:0), treatment ratio versus control” value (male rats, day 14, high dose) of the same compound?
Its value is 0.64 *.

What about the “Metanephrine, treatment ratio versus control” value (male rats, day 14, high dose) of the same compound?
The value was 0.7 *.

What about the “Normetanephrine, treatment ratio versus control” value (male rats, day 14, high dose) of the same compound?
The value was 0.89 *.

And the “Creatine, treatment ratio versus control” value [5]?
The value was 1.31.

And the “Creatinine, treatment ratio versus control” value [5]?
The value was 1.05.

What about the “Glycerol-3-phosphate, polar fraction, treatment ratio versus control” value [5] of the same compound?
Its value is 1.29 *.

What about the “Lysophosphatidylcholine (C18:2), treatment ratio versus control” value [5] of the same compound?
Its value is 1.09.

What about the “Threonic acid, treatment ratio versus control” value [5] of the same compound?
The value was 1.14 *.

What about the “4-Hydroxy-3-methoxyphenylglycol (HMPG), treatment ratio versus control” value (male rats, day 28, high dose) of the same compound?
The value was 0.86 *.

And the “Cysteine, treatment ratio versus control” value (male rats, day 28, high dose)?
Its value is 0.72 *.

What about the “Isopalmitic acid (C16:0), treatment ratio versus control” value (male rats, day 28, high dose) of the same compound?
The value was 0.83^.

What about the “Metanephrine, treatment ratio versus control” value (male rats, day 28, high dose) of the same compound?
Its value is 0.76 *.

And the “Normetanephrine, treatment ratio versus control” value (male rats, day 28, high dose)?
Its value is 0.73 *.
